The source made the active and inactive calls.
Experiments:
[1] = biological target: T1, High affinity choline transporter 1 (Homo sapiens, UniProt Q9GZV3); experiment: CHT inhibitors, dose response, cell-based, 5-point CRC, membrane potential dye (AID 504840); assay type: functional
T1 sequence (Q9GZV3 whole entry): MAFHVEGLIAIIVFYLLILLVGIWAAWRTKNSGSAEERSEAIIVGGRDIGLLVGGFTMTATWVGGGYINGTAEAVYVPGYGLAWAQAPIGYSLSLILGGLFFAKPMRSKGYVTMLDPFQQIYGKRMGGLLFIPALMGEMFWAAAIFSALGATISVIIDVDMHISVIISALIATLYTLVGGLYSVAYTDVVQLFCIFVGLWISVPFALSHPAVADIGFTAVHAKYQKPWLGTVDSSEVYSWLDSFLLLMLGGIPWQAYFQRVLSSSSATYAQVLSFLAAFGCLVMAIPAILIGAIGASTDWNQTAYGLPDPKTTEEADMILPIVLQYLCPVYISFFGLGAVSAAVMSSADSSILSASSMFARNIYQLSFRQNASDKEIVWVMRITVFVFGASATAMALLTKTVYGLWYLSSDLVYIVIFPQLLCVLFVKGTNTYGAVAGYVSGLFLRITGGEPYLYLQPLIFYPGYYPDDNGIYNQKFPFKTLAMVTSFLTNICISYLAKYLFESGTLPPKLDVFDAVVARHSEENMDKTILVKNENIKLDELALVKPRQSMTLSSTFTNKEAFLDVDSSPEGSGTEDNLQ

cells [2] = assay type: functional
[3] = system: Streptococcus sp. 'group A'; experiment: growth inhibition of control SK(-) GAS strain, dose response, counter-screen for streptokinase expression inhibitor project, luminescence, kanamycin, BacTiterGlo, confirmation (AID 1900); assay type: functional, organism-based
cells [4] = assay type: functional, cell-based
Streptokinase A = biological target: T2, Streptokinase A (Streptococcus pyogenes serotype M1, UniProt P10520); experiment: S. pyogenes streptokinase expression inhibitors, potency, dose response, plasminogen activation absorbance, OD405 (AID 1914); assay type: functional, Streptococcus pyogenes M1 GAS;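 also: secreted streptokinase activity via plasminogen activation per viability signal from cell pellet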
T2 sequence (P10520 whole entry): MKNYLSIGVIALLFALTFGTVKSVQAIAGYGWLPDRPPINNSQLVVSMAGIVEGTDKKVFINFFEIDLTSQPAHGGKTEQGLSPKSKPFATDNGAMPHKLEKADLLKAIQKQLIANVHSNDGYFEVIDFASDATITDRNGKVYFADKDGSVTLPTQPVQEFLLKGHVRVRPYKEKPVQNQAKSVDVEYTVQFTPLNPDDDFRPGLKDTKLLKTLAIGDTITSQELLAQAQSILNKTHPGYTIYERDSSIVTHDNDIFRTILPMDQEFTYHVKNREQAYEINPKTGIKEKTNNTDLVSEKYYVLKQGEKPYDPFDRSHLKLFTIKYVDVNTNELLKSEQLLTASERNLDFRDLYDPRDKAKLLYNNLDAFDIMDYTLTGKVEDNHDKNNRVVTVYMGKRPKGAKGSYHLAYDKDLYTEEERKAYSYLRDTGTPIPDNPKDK

cells [5] = assay type: functional, cell-based; remark: listed apart in the source
Streptococcus = experiment: Group A Streptococcus viability loss, dose response, counter-screen for streptokinase expression inhibitor project, luminescence, BacTiterGlo (AID 1915); assay type: functional, organism-based;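 also: potency for reduction of bacterial viability or growth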
[6] = biological target: FAD-linked sulfhydryl oxidase ALR (Homo sapiens, UniProt P55789); experiment: inhibitors of human ALR sulfhydryl oxidase, dose response, biochemical, H2O2 detection, luminescence, cherry-pick (AID 493248)
Chain of FAD-linked sulfhydryl oxidase ALR (P55789 whole entry): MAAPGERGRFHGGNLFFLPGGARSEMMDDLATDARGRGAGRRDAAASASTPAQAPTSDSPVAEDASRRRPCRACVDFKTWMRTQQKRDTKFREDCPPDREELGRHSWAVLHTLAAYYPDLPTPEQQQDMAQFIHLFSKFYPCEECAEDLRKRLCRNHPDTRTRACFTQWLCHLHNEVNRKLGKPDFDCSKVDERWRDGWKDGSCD

[7] = biological target: T3, Calpain-2 catalytic subunit (Sus scrofa, UniProt P43367); experiment: pig calpain II inhibitor potency, dose response, biochemical, fluorogenic peptide substrate (AID 1420); assay type: functional
T3 sequence (P43367 whole entry): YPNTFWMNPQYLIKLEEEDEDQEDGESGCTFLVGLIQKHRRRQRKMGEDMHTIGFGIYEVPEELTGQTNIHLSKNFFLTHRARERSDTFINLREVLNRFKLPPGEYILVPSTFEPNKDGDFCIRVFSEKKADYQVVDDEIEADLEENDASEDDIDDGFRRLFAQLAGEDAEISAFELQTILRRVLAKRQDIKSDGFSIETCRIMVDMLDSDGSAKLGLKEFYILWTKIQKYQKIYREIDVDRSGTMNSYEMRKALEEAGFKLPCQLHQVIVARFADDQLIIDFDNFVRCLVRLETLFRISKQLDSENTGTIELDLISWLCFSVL

[8] = NIH-3T3 fibroblast cytotoxicity, dose response, cytotoxicity control, cell-based, fluorescence, Alamar Blue, secondary assay (AID 2327); assay type: functional;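 also: NIH-3T3 mouse fibroblasts cultured with fluconazole at 8 µg/mL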
[9] = C. albicans growth with fluconazole, confirmation, fluorescence, retest (AID 2467); assay type: functional, cell-based
[10] = inhibitors of intracellular T. cruzi replication, confirmation, NIH3T3 host cells, beta-gal luminescence (AID 2044); assay type: functional, cell-based;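 also: intracellular parasites grown in NIH/3T3 mouse fibroblasts as host cells; luminescent beta-galactosidase reporter signal from transgenic T. cruzi replicating inside host cells; inhibitors lower the luminescence signal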
[11] = cytotoxicity toward NIH3T3 fibroblasts, dose response, counter-screen, cell-based, ATP luminescence, mouse fibroblasts (AID 2010); assay type: functional;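 also: cells exposed to compound for about 90 hours before reading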
[12] = biological target: T4, Corticotropin-releasing factor receptor 2/Corticotropin-releasing factor-binding protein (Homo sapiens, UniProt P24387+Q13324); experiment: Dose Response confirmation of uHTS hits for small molecule antagonists of the CRF-binding protein and CRF-R2 receptor complex.; assay type: functional; settings: read-out: IC50_Mean
T4 sequence (Q13324 whole entry): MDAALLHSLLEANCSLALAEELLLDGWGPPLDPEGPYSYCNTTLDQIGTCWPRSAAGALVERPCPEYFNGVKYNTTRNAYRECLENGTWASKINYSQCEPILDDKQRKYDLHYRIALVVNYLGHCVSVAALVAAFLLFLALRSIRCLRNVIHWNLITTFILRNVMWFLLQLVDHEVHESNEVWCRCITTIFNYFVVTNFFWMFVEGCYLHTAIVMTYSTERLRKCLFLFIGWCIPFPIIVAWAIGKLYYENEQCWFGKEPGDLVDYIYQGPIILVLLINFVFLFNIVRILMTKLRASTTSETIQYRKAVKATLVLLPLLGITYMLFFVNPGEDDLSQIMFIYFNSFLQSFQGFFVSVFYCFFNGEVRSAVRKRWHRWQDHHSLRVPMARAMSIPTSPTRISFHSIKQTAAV
T4 sequence (P24387 whole entry): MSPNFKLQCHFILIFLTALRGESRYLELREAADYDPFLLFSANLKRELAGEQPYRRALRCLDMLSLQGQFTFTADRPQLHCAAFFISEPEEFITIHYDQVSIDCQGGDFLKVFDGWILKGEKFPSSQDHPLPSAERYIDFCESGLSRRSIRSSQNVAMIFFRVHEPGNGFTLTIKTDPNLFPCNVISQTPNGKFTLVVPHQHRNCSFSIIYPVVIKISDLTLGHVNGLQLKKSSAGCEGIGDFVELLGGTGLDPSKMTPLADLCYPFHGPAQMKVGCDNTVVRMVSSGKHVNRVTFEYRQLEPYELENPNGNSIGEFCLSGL

[13] = biological target: T4, Corticotropin-releasing factor receptor 2/Corticotropin-releasing factor-binding protein; experiment: activators of CRF receptor 2 with binding protein – uHTS hits, confirmation (AID 602473); assay type: functional; settings: read-out: EC50_Mean
BJ [14] = experiment: cytotoxicity toward BJ-TERT fibroblasts, dose response, cell-based, RAS-independent, luminescence (AID 1933); assay type: functional; settings: Homo sapiens
BJ [15] = experiment: cells; assay type: functional, cell-based; settings: Homo sapiens
BJ [16] = experiment: cytotoxicity toward BJ-TERT-LT-ST fibroblasts, dose response, cell-based, RAS-independent, luminescence (AID 1935); assay type: functional; settings: Homo sapiens;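 also: BJ fibroblasts immortalized with TERT plus LT and ST oncogenes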
[17] = cytotoxicity toward DRD oncogenic fibroblasts, dose response, cell-based, non-viral oncogenic, luminescence (AID 1934); assay type: functional; settings: Homo sapiens
Paired box protein Pax-8 = Paired box protein Pax-8 (Homo sapiens, UniProt Q06710); experiment: inhibitors of PAX8-driven TPO luciferase reporter, dose response, RMG-I cells, cherry-pick (AID 687027); assay type: functional, cell-based;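 also: luciferase reporter driven by Pax8 target thyroperoxidase promoter measured by SteadyGlo luminescence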
Chain of Paired box protein Pax-8 (Q06710 whole entry): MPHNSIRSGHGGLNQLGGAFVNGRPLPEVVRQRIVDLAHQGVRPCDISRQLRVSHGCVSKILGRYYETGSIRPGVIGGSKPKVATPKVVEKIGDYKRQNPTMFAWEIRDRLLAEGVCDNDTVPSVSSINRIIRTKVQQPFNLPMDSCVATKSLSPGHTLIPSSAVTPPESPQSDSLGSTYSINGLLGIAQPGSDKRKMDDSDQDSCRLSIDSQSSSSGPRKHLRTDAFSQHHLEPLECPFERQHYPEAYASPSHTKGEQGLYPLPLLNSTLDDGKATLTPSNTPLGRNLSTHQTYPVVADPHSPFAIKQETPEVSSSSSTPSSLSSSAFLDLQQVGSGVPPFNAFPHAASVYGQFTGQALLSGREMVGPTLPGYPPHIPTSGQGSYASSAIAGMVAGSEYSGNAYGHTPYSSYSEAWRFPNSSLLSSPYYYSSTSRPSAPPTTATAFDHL

[18] = biological target: T5, Rac GTPase-activating protein 1 (Homo sapiens, UniProt Q9H0H5); experiment: MgcRacGAP GTPase-activating activity inhibitors, confirmation, biochemical, ADP Hunter fluorescence, primary and confirmatory (AID 624330); assay type: functional
T5 sequence (Q9H0H5 whole entry): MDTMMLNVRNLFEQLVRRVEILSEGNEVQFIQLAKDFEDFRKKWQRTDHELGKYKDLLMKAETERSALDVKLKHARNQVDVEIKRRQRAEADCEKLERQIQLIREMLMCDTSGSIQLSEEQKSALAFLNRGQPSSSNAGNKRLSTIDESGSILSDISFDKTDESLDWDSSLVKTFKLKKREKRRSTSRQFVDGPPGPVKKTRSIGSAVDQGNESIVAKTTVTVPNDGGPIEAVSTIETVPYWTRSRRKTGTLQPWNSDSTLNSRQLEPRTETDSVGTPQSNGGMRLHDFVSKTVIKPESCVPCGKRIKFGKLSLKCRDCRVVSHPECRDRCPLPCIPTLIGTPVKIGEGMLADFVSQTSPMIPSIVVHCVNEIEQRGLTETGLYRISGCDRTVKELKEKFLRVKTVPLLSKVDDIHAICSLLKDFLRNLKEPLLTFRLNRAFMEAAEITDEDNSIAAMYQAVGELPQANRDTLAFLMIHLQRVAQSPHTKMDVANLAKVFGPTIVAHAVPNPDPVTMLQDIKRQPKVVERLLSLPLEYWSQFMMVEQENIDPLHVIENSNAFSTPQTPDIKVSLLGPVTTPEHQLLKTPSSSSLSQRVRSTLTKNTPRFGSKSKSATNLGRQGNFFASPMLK

CC(C)NC[C@H](O)c1ccc(O)c(O)c1
IC50 [1]: 4.17e-05 µM (inconclusive)

CN(CCC#N)c1ncnc2scc(-c3ccccc3)c12
IC50 [1]: 12.3 µM (active)

CCOc1ccc(OCC(=O)Nc2ccc(OC)cc2)cc1
IC50 (cells [2]): 26.4 µM (active)

O=C(NCCS(=O)(=O)N1CCN(c2ccccc2F)CC1)C1CC(=O)N(c2ccc(F)cc2)C1 (stereo not given)
EC50 [3]: > 150 µM (not active)
EC50 (cells [4]): > 350 µM (not active)
EC50 (Streptokinase A): > 150 µM (not active)
EC50 (cells [5]): > 350 µM (not active)
EC50 (Streptococcus): > 150 µM (not active)

CC(C)(C)c1ccc(-c2nc3cc(N)ccc3o2)cc1
AC50 [6]: 0.751 µM (active)

CCCCn1c(S)nnc1-c1csc2c1CCC(C)C2 (stereo not given)
IC50 [7]: 18.2 µM (not active)

CC(C)Cn1c(N)c(C(=O)COC(=O)c2cccc(Cl)c2)c(=O)n(C)c1=O
IC50 [7]: 6.14 µM (active)

COc1ccc(-[n+]2c(-c3ccc(Br)cc3)cn3c2SC(C)C3)cc1 (stereo not given)
EC50 [8]: > 160 µM (inactive)
EC50 [9]: 2.96 µM (active)
EC50 [10]: 0.684 µM (active)
EC50 [11]: > 30 µM (not active)

CC(C)C[C@H](NC(=O)c1[nH]cnc1C(=O)NCc1ccccc1)C(=O)OC(C)(C)C
IC50 [7]: 10.8 µM (not active)

CCCS(=O)(=O)N1CCCC(C(=O)NCCCN(CC)c2cccc(C)c2)C1 (stereo not given)
AC50 [6]: 1.48 µM (active)
IC50 [12]: > 47.1 µM (inactive)
EC50 [13]: > 53 µM (inactive)

CCN1CCn2c3c(c4cc(Cl)ccc42)CCCC31 (stereo not given)
IC50 [1]: 3.31 µM (active)

CC(C)(C)CC(C)(C)N=C(S)Nc1ccc2nc(-c3ccccn3)c(-c3ccccn3)nc2c1
IC50 [1]: 26.3 µM (active)

Cc1cc(NC(=S)N(Cc2cccc(Br)c2)CC2CCC(C(=O)O)CC2)ccc1Cl (stereo not given)
IC50 [7]: 11.3 µM (not active)

Cc1ccc(C)c(OC(=O)c2cncc(Br)c2)c1
EC50 [8]: > 160 µM (inactive)

CCN1CCn2c3c(c4cccc(C)c42)CCCC31 (stereo not given)
IC50 [1]: 14.5 µM (active)

CCOC(=O)CCCNC(=O)COC(=O)c1cc(Br)c(Br)s1
IC50 (cells [2]): 13.2 µM (active)

CCCNC(=O)c1c(CSc2ccccc2)noc1C(=O)NCc1ccccc1
IC50 [7]: 3.24 µM (not active)

CCCCN(CCCC)C(=O)/C=C/c1cccc([N+](=O)[O-])c1
IC50 [7]: 19.4 µM (not active)

C=CC[C@@H]1C=C(C)C[C@H](C)C[C@H](OC)[C@H]2O[C@@](O)(C(=O)C(=O)N3CCCC[C@H]3C(=O)O[C@H](/C(C)=C/[C@@H]3CC[C@@H](O)[C@H](OC)C3)[C@H](C)[C@@H](O)CC1=O)[C@H](C)C[C@@H]2OC
EC50 [8]: > 160 µM (inactive)
EC50 [9]: 0.035 µM (active)

CCN1C/C(=C/c2ccc(N3CCOCC3)cc2)C(=O)/C(=C/c2ccc(N3CCOCC3)cc2)C1
EC50 (BJ [14]): 7.89 µM (active)
EC50 (BJ [15]): 11 µM (inconclusive)
EC50 (BJ [16]): 5.64 µM (active)
EC50 [17]: 5.96 µM (active)

CCC(NC(=O)CCc1nnc(-c2cc(C)on2)o1)C12CC3CC(CC(C3)C1)C2 (stereo not given)
IC50 [1]: 14.5 µM (active)

Cc1cc(NC(=O)CSc2nc(-c3ccco3)cc(C(F)(F)F)n2)n(-c2ccccc2)n1
EC50 (BJ [14]): 17.6 µM (inconclusive)
EC50 (BJ [15]): 64.5 µM (inconclusive)
EC50 (BJ [16]): > 75 µM (not active)
EC50 [17]: 14.9 µM (active)

Cc1cccc(/C=C/C(=O)c2ccc(N3CCOCC3)cc2)c1
IC50 [7]: 15.7 µM (not active)

O=C(NNc1cc(Cl)cc(Cl)c1)c1cccs1
IC50 [1]: 16.2 µM (active)

O=C(O)c1cccc(S(=O)(=O)Nc2ccc(N3CCCCC3)cc2)c1
AC50 [6]: 1.75 µM (active)

NS(=O)(=O)c1ccc(NNC(=O)c2ccc(Br)o2)c([N+](=O)[O-])c1
AC50 [6]: 8.06 µM (active)

Cc1noc(C)c1C(=O)N1CCCC(Nc2ccc(C(C)C)cc2)C1 (stereo not given)
AC50 [6]: 7.67 µM (active)

Cc1ccc(NCc2nnc3n2CCCCC3)c(C)c1
AC50 [6]: 1.35 µM (active)

COc1ccc(S(=O)(=O)Nc2ccc3c(c2)C(=O)N([C@H](C)CO)C[C@@H](C)[C@H](CN(C)C(=O)Nc2ccc(C(F)(F)F)cc2)OCCCC[C@H](C)O3)cc1
AC50 (Paired box protein Pax-8): 7.32 µM (active)

O=C(O/N=C1\CCS(=O)(=O)c2sccc21)c1ccc(F)cc1
IC50 [7]: < 0.4 µM (not active)

C/C(CC(=O)Nc1ccc(N(C)C)cc1)=N\NC(=O)c1ccc([N+](=O)[O-])cc1
AC50 [6]: 5.09 µM (active)
IC50 [18]: 62.3 µM (active)

COc1ccc(C(=O)N/N=C/c2ccc(OC)c(CN3CCN(c4ccc(F)cc4)CC3)c2)cc1
AC50 (Paired box protein Pax-8): 35.8 µM (active)

ClCc1csc(-c2ccc(Cl)cc2)n1
AC50 [6]: 4.37 µM (active)
